This note sets out measurements from US7179832B2, “Glycogen synthase kinase 3β inhibitor, composition and process for the preparation thereof” (Crystalgenomics, Inc., priority 2003, dated 2007).

This experiment deals with GSK-3β (Homo sapiens, UniProt P49841). Put plainly: Assay for GSK-3β inhibiting activity (32P-ATP, phospho-CREB peptide substrate, filter paper, CPM). The format is biochemical. As to conditions: GSK-3β inhibiting activity; 100 nM GSK-3β protein, 100 μM phospho-CREB peptide, 100 μM ATP, 30° C. for 1 hour; read-out: IC50.
GSK-3β, sequence (P49841 whole entry): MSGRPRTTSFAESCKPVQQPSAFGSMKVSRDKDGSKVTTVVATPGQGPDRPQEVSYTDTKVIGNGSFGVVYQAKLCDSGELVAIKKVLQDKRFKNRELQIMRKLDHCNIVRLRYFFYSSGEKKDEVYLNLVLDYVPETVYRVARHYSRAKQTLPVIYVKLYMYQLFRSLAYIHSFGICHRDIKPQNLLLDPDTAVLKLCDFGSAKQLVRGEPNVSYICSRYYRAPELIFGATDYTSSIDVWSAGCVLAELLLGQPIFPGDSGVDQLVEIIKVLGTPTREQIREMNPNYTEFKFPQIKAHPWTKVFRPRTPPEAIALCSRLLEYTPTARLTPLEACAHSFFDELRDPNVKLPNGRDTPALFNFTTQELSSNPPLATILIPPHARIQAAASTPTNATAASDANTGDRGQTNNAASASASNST
As to `O=C(Nc1ccc(CCNS(=O)(=O)c2cccs2)cc1)c1ccc(O)c2[nH]c(-c3ccccc3)nc12` [Compound 12], the half-inhibitory concentration (IC50) stood at 200 nM.
As for `Cc1ccc(S(=O)(=O)Nc2ccc(CCNC(=O)c3ccc(O)c4[nH]c(-c5ccc(F)cc5Cl)nc34)cc2)cc1` [Compound 144], the half-maximal inhibitory concentration (IC50) worked out at 6 nM.
`CN1CCN(CC(=O)Nc2ccc(CCNC(=O)c3ccc(O)c4[nH]c(-c5ccc(F)cc5Cl)nc34)cc2)CC1` [Compound 156]: the IC50 came to 280 nM.
Next, `O=C(NCCc1ccc(O)cc1)c1ccc(O)c2[nH]c(-c3ccc(F)cc3)nc12` [Compound 121]: 30 nM; `O=C(NCCCn1cnc(Cl)c1Cl)c1ccc(O)c2[nH]c(-c3ccc(Cl)cc3)nc12` [Compound 174]: 40 nM; `COc1ccc(CCNC(=O)c2ccc(O)c3[nH]c(-c4ccc(Cl)cc4Cl)nc23)cc1O` [Compound 102]: 230 nM.
Consider `O=C(Nc1ccccc1)c1ccc(O)c2[nH]c(-c3ccc(Cl)cc3Cl)nc12` [Compound 22], for which the IC50 is above 1000 nM.
For `O=C(NCCCn1ccnc1)c1ccc(O)c2nc(-c3ccc(F)c(Cl)c3)[nH]c12` [Compound 203], the half-inhibitory concentration (IC50) is 3 nM.
As for `O=C(NCCN1CCOCC1)c1ccc(O)c2[nH]c(-c3ccccc3)nc12` [Compound 66], the IC50 is above 1000 nM.
Next, `COc1ccc(CCNC(=O)c2ccc(O)c3[nH]c(-c4ccccc4)nc23)cc1O` [Compound 63]: 450 nM; `Nc1ccc(CNC(=O)c2ccc(O)c3[nH]c(-c4ccccc4)nc23)cc1` [Compound 50]: 600 nM.
The result for `O=C(NCCc1c[nH]cn1)c1ccc(O)c2[nH]c(-c3ccc(F)cc3Cl)nc12` [Compound 154] reads above 1000 nM; that for `CCN(CC)CC(=O)Nc1ccc(CCNC(=O)c2ccc(O)c3[nH]c(-c4ccc(F)cc4)nc23)cc1` [Compound 130], 330 nM.
Take `Nc1ccc(NC(=O)c2ccc(O)c3[nH]c(-c4ccccc4)nc23)cc1` [Compound 4]: the half-inhibitory concentration (IC50) is above 1000 nM.
On to `Cc1ccc(S(=O)(=O)Nc2ccc(CCNC(=O)c3ccc(O)c4[nH]c(-c5ccc(F)cc5F)nc34)cc2)cc1` [Compound 141], for which the concentration for half-maximal inhibition (IC50) is 43 nM.

For orientation: IC50 means the concentration that gives 50% inhibition.
